From patent US20180273528A1 (LES LABORATOIRES SERVIER, priority 2015, published 2018)

Tests used:
DYRK1A [1] = biological target: T1, DYRK1A (Homo sapiens, UniProt Q13627); assay: Cellular DYRK1 autophosphorylation assay in U2-OS cells; format: cell-based; parameters: full-length, wild-type human DYRK1A (NM_001396) with an HA tag; expressed in transfected cells; host or cells: human U2-OS osteosarcoma cells, transient transfection of a pcDNA3.1 plasmid; conditions: U2-OS cells transfected with HA-tagged human DYRK1A, 5 hours exposure; read-out: IC50 (μM) P-Ser520-Dyrk1A -Cell assay
Outline: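 U2-OS cells treated with a compound concentration range for 5 h. Phospho-Ser520-DYRK1A measured by western blot densitometry or Mesoscale ELISA. IC50 from dose-response curves; for blots, ratio of phospho-Ser520 to total DYRK1A signal.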

DYRK1A [2] = biological target: T1, DYRK1A; assay: Kinase TR-FRET assay, DYRK1A; format: biochemical; parameters: full-length, wild-type human DYRK1A (NM_001396) with an HA tag; expressed in transfected cells; host or cells: human U2-OS osteosarcoma cells, transient transfection of a pcDNA3.1 plasmid; conditions: full-length human kinase, 10 μM ATP
Method: (§1) Inhibition of the enzymatic activity of human kinases was evaluated in a Time-Resolved Fluorescence Resonance Energy Transfer (TR-FRET) assay in 384-well reaction plates. […] Test compounds of the invention were added in reaction buffer at a range of concentrations from 0.1 nM to 30 μM. Following addition of EDTA (Sigma E7889, 10 mM) to stop the reaction, Europium-labelled mouse monoclonal antibody recognizing phospho-Thr232 in MBP (Perkin Elmer TRF0201, 1 nM) was added.

[3] = biological target: T2, His-TEV-DYRK1A Kinase domain (aa127-485) (Homo sapiens, UniProt Q13627); assay: Kinase ADP assay (ADP Hunter), DYRK1A kinase domain; format: biochemical; conditions: 20 μM ATP
T2 construct: His-TEV-DYRK1A Kinase domain (aa127-485); His tag (N); TEV protease cleavage site (N)
Outline: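 Compounds incubated 10 min at 30 °C with 20 nM enzyme, 40 μM peptide substrate and 20 μM ATP in pH 7.4 Hepes buffer with 10 mM MgCl2. ADP formed detected by ADP Hunter Plus reagents after 20 min at 30 °C, fluorescence read at 590 nm.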

CDK9 = biological target: T3, CDK9 (Homo sapiens, UniProt P50750); assay: Kinase TR-FRET assay, CDK9; format: biochemical; conditions: full-length human kinase, 10 μM ATP
T3 construct: full-length human kinases from Carna Biosciences; purchased Carna Biosciences 04-110
Method: Inhibition of the enzymatic activity of human kinases was evaluated in a Time-Resolved Fluorescence Resonance Energy Transfer (TR-FRET) assay in 384-well reaction plates. In this assay, full-length human kinases from Carna Biosciences—DYRK1A (NM_001396, ref. 04-130; 2.0 ng/μl), DYRK1B (NM_004714, ref. 04-131; 1.2 ng/p), CLK1 (NM_001162407, ref. 04-126; 0.7 ng/μl), CDK9 (NM_001261, ref. 04-110; 0.9 ng/μl), or GSK3β (NM_001146156, ref. 04-141; 2.0 ng/μl—were incubated for 40 minutes (DYRK1A and DYRK1B) or 100 minutes (CLK1, CDK9 and GSK3β) at room temperature with ATP (Sigma A2383, 10 μM) and a ULight™-labelled human Myelin Basic Protein (MBP) peptide substrate (Perkin Elmer TRF0109, 100 nM) in a reaction buffer composed of 50 mM HEPES pH7.4, 1 mM EGTA, 10 mM MgCl2, 2 mM DTT and 0.01% Tween20. Test compounds of the invention were added in reaction buffer at a range of concentrations from 0.1 nM to 30 μM. Following addition of EDTA (Sigma E7889, 10 mM) to stop the reaction, Europium-labelled mouse monoclonal antibody recognizing phospho-Thr232 in MBP (Perkin Elmer TRF0201, 1 nM) was added. After one hour, the reaction plates were read using a fluorescence reader (EnVision®, Perkin Elmer) at 620 nm and 665 nm (excitation at 340 nm); when the Europium donor fluorophore is excited by light at 340 nm, an energy transfer (620 nm) to the acceptor occurs, which will then emit light at 665 nm.

DYRK1B = biological target: T4, DYRK1B (Homo sapiens, UniProt Q9Y463); assay: Kinase TR-FRET assay, DYRK1B; format: biochemical; conditions: full-length human kinase, 10 μM ATP
T4 construct: full-length human kinases from Carna Biosciences; purchased Carna Biosciences 04-131
Method: as §1

T4 sequence (Q9Y463 whole entry): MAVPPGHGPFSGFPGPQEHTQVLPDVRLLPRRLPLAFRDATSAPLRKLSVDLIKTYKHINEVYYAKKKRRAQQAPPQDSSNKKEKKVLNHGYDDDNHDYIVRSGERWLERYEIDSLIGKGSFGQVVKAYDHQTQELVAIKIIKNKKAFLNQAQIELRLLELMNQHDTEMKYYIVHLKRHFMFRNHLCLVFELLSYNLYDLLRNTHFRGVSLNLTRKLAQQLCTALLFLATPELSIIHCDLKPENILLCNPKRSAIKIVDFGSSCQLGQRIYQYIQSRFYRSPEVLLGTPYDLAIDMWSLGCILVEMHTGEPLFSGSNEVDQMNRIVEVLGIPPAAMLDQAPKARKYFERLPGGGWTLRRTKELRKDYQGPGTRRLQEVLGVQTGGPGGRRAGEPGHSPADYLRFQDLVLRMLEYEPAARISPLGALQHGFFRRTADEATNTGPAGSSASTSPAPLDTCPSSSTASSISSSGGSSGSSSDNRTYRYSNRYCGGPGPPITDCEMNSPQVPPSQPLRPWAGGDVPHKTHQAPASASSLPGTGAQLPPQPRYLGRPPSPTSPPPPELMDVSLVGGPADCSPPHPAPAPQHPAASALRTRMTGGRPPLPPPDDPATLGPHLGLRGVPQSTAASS
T3 sequence (P50750 whole entry): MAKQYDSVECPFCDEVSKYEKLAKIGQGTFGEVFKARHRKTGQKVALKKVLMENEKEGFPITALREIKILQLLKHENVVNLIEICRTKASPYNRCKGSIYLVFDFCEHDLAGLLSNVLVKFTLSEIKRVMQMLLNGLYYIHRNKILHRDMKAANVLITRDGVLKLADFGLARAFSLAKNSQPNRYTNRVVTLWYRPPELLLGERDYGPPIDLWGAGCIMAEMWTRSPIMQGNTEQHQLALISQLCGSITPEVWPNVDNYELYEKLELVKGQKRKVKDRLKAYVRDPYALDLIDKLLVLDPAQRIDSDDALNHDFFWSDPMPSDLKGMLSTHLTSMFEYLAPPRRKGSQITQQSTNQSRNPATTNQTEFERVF
T3 sequence (O60563 whole entry partner): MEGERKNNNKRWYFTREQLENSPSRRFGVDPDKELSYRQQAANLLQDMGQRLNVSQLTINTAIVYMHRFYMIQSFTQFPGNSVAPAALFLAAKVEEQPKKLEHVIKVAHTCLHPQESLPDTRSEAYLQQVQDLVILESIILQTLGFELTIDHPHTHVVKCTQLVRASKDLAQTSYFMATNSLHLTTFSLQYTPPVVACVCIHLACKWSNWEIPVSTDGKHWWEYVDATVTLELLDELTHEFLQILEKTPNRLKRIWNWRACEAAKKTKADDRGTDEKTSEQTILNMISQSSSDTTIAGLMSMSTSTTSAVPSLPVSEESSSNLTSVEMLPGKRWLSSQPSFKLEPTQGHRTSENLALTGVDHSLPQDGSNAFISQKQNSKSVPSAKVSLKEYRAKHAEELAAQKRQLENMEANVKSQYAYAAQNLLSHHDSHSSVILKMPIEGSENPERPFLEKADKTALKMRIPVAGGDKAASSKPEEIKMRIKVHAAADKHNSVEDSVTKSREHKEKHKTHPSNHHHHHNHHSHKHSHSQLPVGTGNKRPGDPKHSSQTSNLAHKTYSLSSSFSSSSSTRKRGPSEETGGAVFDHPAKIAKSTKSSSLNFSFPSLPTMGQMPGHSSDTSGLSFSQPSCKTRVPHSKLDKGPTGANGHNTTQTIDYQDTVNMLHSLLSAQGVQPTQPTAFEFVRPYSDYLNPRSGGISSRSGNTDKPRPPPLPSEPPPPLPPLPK

Compound | IC50 (DYRK1A [1]) | IC50 (DYRK1A [2]) | IC50 [3] | IC50 (CDK9) | IC50 (DYRK1B)
Cc1nc2ccc(-c3cc(N)nc(N)c3)nc2n1CCO [Example 3, 2-[5-(2,6-diaminopyridin-4-yl)-2-methyl-3H-imidazo[4,5-b]pyridin-3-yl]ethanol] | 0.23 µM | 0.02 µM | 0.02 µM | 2.57 µM | 
Cc1nc2ccc(-c3cc(N)nc(N)c3)nc2n1C [Example 4, 4-(2,3-dimethyl-3H-imidazo[4,5-b]pyridin-5-yl)pyridine-2,6-diamine] | 0.25 µM | 0.015 µM | 0.011 µM | 1.26 µM | 
Cc1nc2ccc(-c3cc(N)nc(N)c3)nc2n1Cc1ccncc1 [Example 5, 4-[2-methyl-3-(pyridin-4-ylmethyl)-3H-imidazo[4,5-b]pyridin-5-yl]pyridine-2,6-diamine] | 1 µM | 0.006 µM | 0.02 µM | 6.56 µM | 
Cc1nc2ccc(-c3cc(N)nc(N)c3)nc2n1Cc1ccccn1 [Example 6, 4-[2-methyl-3-(pyridin-2-ylmethyl)-3H-imidazo[4,5-b]pyridin-5-yl]pyridine-2,6-diamine] |  | 0.155 µM | 0.493 µM | 1.09 µM | 0.149 µM
Cc1nc2ccc(-c3cc(N)nc(N)c3)nc2n1Cc1cccnc1 [Example 7, 4-[2-methyl-3-(pyridin-3-ylmethyl)-3H-imidazo[4,5-b]pyridin-5-yl]pyridine-2,6-diamine] |  | 0.07 µM | 0.079 µM | 2.38 µM | 
Cc1nc2ccc(-c3cc(N)nc(N)c3)nc2n1Cc1ccc(F)cc1 [Example 10, 4-[3-(4-fluorobenzyl)-2-methyl-3H-imidazo[4,5-b]pyridin-5-yl]pyridine-2,6-diamine] |  | 0.032 µM | 0.079 µM | 4.58 µM | 0.055 µM
Cc1nc2ccc(-c3cc(N)nc(N)c3)nc2n1CC1CC1 [Example 11, 4-[3-(cyclopropylmethyl)-2-methyl-3H-imidazo[4,5-b]pyridin-5-yl]pyridine-2,6-diamine] | 0.17 µM | 0.004 µM | 0.011 µM | 3.45 µM | 
Cc1nc2ccc(-c3cc(N)nc(N)c3)nc2n1CCc1cnn(-c2ccccc2)c1 [Example 21, 4-{2-methyl-3-[2-(1-phenyl-1H-pyrazol-4-yl)ethyl]-3H-imidazo[4,5-b]pyridin-5-yl}pyridine-2,6-diamine] |  | 0.015 µM | 0.053 µM | 12.5 µM | 
Cc1nc2ccc(-c3cc(N)nc(N)c3)nc2n1CC(F)(F)F [Example 28, 4-[2-methyl-3-(2,2,2-trifluoroethyl)-3H-imidazo[4,5-b]pyridin-5-yl]pyridine-2,6-diamine] |  |  |  | 5.7 µM | 
Cc1nc2ccc(-c3cc(N)nc(N)c3)nc2n1Cc1cc(OC(F)(F)F)ccc1F [Example 50, 4-{3-[2-fluoro-5-(trifluoromethoxy)benzyl]-2-methyl-3H-imidazo[4,5-b]pyridin-5-yl}pyridine-2,6-diamine] |  | 0.029 µM | 0.057 µM | 1.99 µM | 
Cc1nc2ccc(-c3cc(N)nc(N)c3)nc2n1C(C)C [Example 53, 4-[2-methyl-3-(propan-2-yl)-3H-imidazo[4,5-b]pyridin-5-yl]pyridine-2,6-diamine] |  |  |  | 1.31 µM | 
Cc1nc2ccc(-c3cc(N)nc(N)c3)nc2n1CC1CCCCC1 [Example 55, 4-[3-(cyclohexylmethyl)-2-methyl-3H-imidazo[4,5-b]pyridin-5-yl]pyridine-2,6-diamine] | 0.16 µM | 0.002 µM | 0.024 µM |  | 0.021 µM
Cc1nc2ccc(-c3cc(N)nc(N)c3)nc2n1C12CC3CC(CC(C3)C1)C2 [Example 56, 4-{2-methyl-3-tricyclo[3.3.1.1^3,7]dec-1-yl-3H-imidazo[4,5-b]pyridin-5-yl}pyridine-2,6-diamine] |  | 0.009 µM | 0.015 µM | 0.357 µM | 
CCCc1nc2ccc(-c3cc(N)nc(N)c3)nc2n1C1CCCC1 [Example 160, 4-(3-cyclopentyl-2-propyl-3H-imidazo[4,5-b]pyridin-5-yl)pyridine-2,6-diamine] | 0.144 µM | 0.003 µM | 0.024 µM |  | 0.068 µM
